Columns and labels:
p70S6K1 = p70S6K1 (Homo sapiens, UniProt P23443); assay: Z′-LYTE biochemical kinase inhibition assay (SelectScreen, Thermo Fisher); conditions: for inhibition at 10 µM: 10 µM compound concentration, high-throughput single-concentration screen; for IC50 / IC50 of inhibition of p70S6K1: 10-point titration, 3-fold dilutions from 25 μM
Procedure: The high-throughput and dose-response curve assays against kinases were performed using the services of SelectScreen™ Biochemical Kinase Profiling Service by Thermo Fisher Scientific (Table 2; Supplementary Figure S13). The Z ´-LYTE biochemical assay employs a fluorescence-based, coupled-enzyme format based on the differential sensitivity of phosphorylated and non-phosphorylated peptides to proteolytic cleavage. The peptide substrate is labeled with two fluorophores—one at each end—that make up a fluorescence resonance energy transfer (FRET) pair. In the primary reaction, the kinase transfers the gamma-phosphate of ATP to a single tyrosine, serine, or threonine residue in a synthetic FRET-peptide. In the secondary reaction, a site-specific protease recognizes and cleaves non-phosphorylated FRET peptides. Phosphorylation of FRET-peptides suppresses cleavage by the development reagent. Cleavage disrupts FRET between the donor (i.e., coumarin) and acceptor (i.e., fluorescein) fluorophores on the FRET-peptide, whereas uncleaved, phosphorylated FRET-peptides maintain FRET. A ratiometric method, which calculates the emission ratio of donor emission to acceptor emission after excitation of the donor fluorophore at 400 nm, is used to quantitate reaction progress, as shown in the equation below.” Emission ratio=Coumarin emission 445 nm/Flourescein emission 520 nm.
The test compounds were screened in 1% DMSO (final) in the well. For 10-point titrations, 3-fold serial dilutions were conducted from the starting concentration of 25 μM.
All peptide/kinase mixtures are diluted to a 2× working concentration in the appropriate kinase Buffer. The 2X RPS6KB1 (p70S6K)/Ser/Thr 07 mixture is prepared in 50 mM HEPES pH 7.5, 0.01% BRIJ-35, 10 mM MgCl2, 1 mM EGTA. The final 10 µL kinase reaction consists of 2.87–17.7 ng RPS6KB1 (p70S6K) and 2 µM Ser/Thr 07 in 50 mM HEPES pH 7.5, 0.01% BRIJ-35, 10 mM MgCl2, 1 mM EGTA. After the 1 h kinase reaction incubation, 5 µL of a 1:45000 dilution of Development Reagent A is added.
All ATP Solutions are diluted to a 4X working concentration in kinase buffer (50 mM HEPES pH 7.5, 0.01% BRIJ-35, 10 mM MgCl2, 1 mM EGTA). ATP Km apparent was previously determined using a Z′-LYTE assay.
Bar-coded Corning, low volume NBS, black 384-well plate (Corning Cat. #4514). • 1. 100 nL 100X test compound in 100% DMSO • 2. 2.4 µL kinase buffer • 3. 5 μL 2X peptide/kinase mixture • 4. 2.5 µL 4X ATP solution • 5. 30-s plate shake • 6. 60-min kinase reaction incubation at room temperature • 7. 5 μL Development Reagent solution • 8. 30-s plate shake • 9. 60-min Development Reaction incubation at room temperature • 10. Read on the fluorescence plate reader and analyze the data
The SelectScreenTM Biochemical Kinase Profiling Service by ThermoFisher Scientific was used to perform a high-throughput kinase inhibition assay at a single concentration as well as 10-point titrations to generate the dose-response curves for IC50 calculations. The Z′-LYTE biochemical assay, which is a FRET-based assay, was used to analyze the compounds for p70S6K1 inhibition. Compounds 5a–f were subjected to an initial high-throughput screening against p70S6K1 at 10 µM concentration (Table 1).

MCF7 E3 cells = assay: MCF-7 E3 cell proliferation assay (alamarBlue); format: cell-based; conditions: Homo sapiens, 10 μM compound, in the presence of E2 (10^−10 M), estrogen-deprived cells
Procedure: Human breast tumor cells MCF-7 subclone E3 were routinely maintained in DMEM medium (Mediatech) supplemented with non-essential amino acid (Gibco), sodium pyruvate (Gibco), L-glutamine (Gibco), gentamicin (Gibco), and 10% fetal bovine serum (FBS) (Hyclone). For the proliferation experiment, the MCF-7 monolayer was dispersed into suspension in DMEM medium with 10% FBS, and 5 × 10^5 cells were seeded into a T-25 flask. The medium was aspirated from the cells, washed with phosphate buffer saline, and cultured with DMEM medium containing dextran-coated charcoal (DCC) FBS for 6 days. After 6 days, the cells were dispersed into suspension, counted, and 1.8 × 10^4 cells per well in a 100 µL DCC medium was subcultured into 96-well plates. After 24 h incubation, the medium was aspirated and replaced with the test compound at 10^−5 M. The cells were dosed again after 3 days and grown for another 3 days. Measurement for cell proliferation was performed with alamarBlue (Bio-Rad) on a plate reader (BioTek Synergy Neo2) with 560 nm excitation and 590 nm emission. The experiments were performed in quadruplicate.
The MCF7 cell line is often used in studies involving ERα overexpressing BC. It is well-established that overexpression of estrogen leads to overexpression of p70S6K1 due to the costimulatory relationship between them, thereby driving the progression of BC ([Fullwood et al., 2009]; [Maruani et al., 2012]). The knockdown or absence of estrogen was partially abrogated by p70S6K1 rescuing and promoting ERα activity ([Holz, 2012]; [Yamnik et al., 2009]). For these reasons, MCF7 cells were used for the proliferation studies in the presence of our p70S6K1 inhibitors. MCF7 E3 cells were grown under estrogen-deprived conditions and treated with 10 μM concentrations of the compounds with and without E2 (10^−10 M). The proliferation was measured using alamarBlue (Figure 5). Compound 5b, with the best p70S6K1 inhibition potency of 0.4 μM IC50 value, inhibited the proliferation of MCF7 E3 cells by 60% in the presence of E2. […] The trend of MCF7 E3 proliferation was directly proportional to the p70S6K1 inhibition potency.

[1] = tested on: rpS6 phosphorylation (S235/236, S240/244); assay: Western blot of rpS6 and phospho-rpS6 in MCF7 cells; format: cell-based, Human; conditions: MCF7 cells estrogen deprived, 5 µM and 10 µM, with β estradiol, 24 h and 48 h
Procedure: Total proteins were isolated using standard protocols as previously described ([Greenberg et al., 2022]; [Kim H. et al., 2013]). In brief, ice-cold RIPA lysis buffer containing phosphatase and protease inhibitors (Santa Cruz Biotechnology, Dallas, TX, USA) was used to lyse cells. The clarified lysate protein concentration was measured using Bradford reagent (Thermo Scientific, Waltham, MA, USA). The proteins were separated using a 4%–20% SDS-PAGE gradient gel and transferred onto a PVDF membrane (Bio-Rad, Hercules, CA, USA). A 1X blocking buffer was used to block the non-specific binding sites. The membranes were washed with Tris-buffered saline (Bio-Rad) containing 0.1% Tween-20 (Sigma-Aldrich, St. Louis, MO, USA). Membranes were incubated overnight with primary antibodies at 4°C. […] Immune complexes were detected with appropriate secondary antibodies from Invitrogen (Camarillo, CA, USA) and Clarity Western ECL Substrate (Bio-Rad), as described ([Greenberg et al., 2022]). […] Results were expressed as the standard error of the mean (±SEM). Significant changes from controls or E2 treated group were determined by a two-tailed Student’s t-test, and p-values of <0.05 were considered significant. […]

[2] = design: method as in Li et al., 2010; Motzer et al., 2015; Tolcher et al., 2014; conditions: given with erlotinib and everolimus; ref Li et al., 2010; Motzer et al., 2015; Tolcher et al., 2014; cited from earlier work
[3] = design: method as in Pearce et al., 2010; Segatto et al., 2016; conditions: ref Pearce et al., 2010, Segatto et al., 2016, cited from earlier work
cervical cancer cells = tested on: cervical cancer cells; design: method as in Nam et al., 2019; conditions: ref Nam et al., 2019; cited from earlier work

Sequence of p70S6K1 (P23443 24-525): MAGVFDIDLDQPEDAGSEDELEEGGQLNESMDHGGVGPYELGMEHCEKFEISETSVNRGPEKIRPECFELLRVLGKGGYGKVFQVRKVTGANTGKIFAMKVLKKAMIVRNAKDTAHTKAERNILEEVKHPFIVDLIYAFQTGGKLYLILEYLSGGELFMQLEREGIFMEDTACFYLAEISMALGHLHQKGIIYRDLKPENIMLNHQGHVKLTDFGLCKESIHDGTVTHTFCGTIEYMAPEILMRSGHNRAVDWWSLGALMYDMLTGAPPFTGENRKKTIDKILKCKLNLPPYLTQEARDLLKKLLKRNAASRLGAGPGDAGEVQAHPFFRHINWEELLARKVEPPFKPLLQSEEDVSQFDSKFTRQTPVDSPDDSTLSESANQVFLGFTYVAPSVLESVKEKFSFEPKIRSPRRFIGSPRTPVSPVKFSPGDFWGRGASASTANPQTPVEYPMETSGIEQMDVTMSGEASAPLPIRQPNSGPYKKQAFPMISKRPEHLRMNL

Row | inhibition at 10 µM (p70S6K1) [%] | IC50 (p70S6K1) [nM] | IC50 of inhibition of p70S6K1 (p70S6K1) | Compound | inhibition at 10 µM (MCF7 E3 cells) [%] | further results
1 | 70 | 1200 |  | Nc1cc(N)c2c(c1)C(=O)NC2=O [Compound 4, 4,6-diaminoisoindoline-1,3-dione] |  | 
2 | > 90 | 400 | sub-micromolar | Nc1cc(NC(=O)Cc2ccccc2)cc2c1C(=O)NC2=O [Compound 5b, N-(7-amino-1,3-dioxoisoindolin-5-yl)-2-phenylacetamide] | 60 | rpS6 protein expression and phosphorylation (S235/236, S240/244), immunoblot band intensity [1]: significant decreases
3 | 80 | 5450 |  | Nc1cc(NC(=O)Cc2ccc(C(F)(F)F)cc2)cc2c1C(=O)NC2=O [Compound 5c, N-(7-amino-1,3-dioxoisoindolin-5-yl)-2-(4-(trifluoromethyl)phenyl)acetamide] | 35 | 
4 | > 90 | 510 | sub-micromolar | Nc1cc(NC(=O)Cc2cccc(C(F)(F)F)c2)cc2c1C(=O)NC2=O [Compound 5d, N-(7-amino-1,3-dioxoisoindolin-5-yl)-2-(3-(trifluoromethyl)phenyl)acetamide] | 56 | 
5 | 22 |  |  | Nc1cc(NC(=O)C23CC4CC(CC(C4)C2)C3)cc2c1C(=O)NC2=O [Compound 5e, N-(7-amino-1,3-dioxoisoindolin-5-yl)adamantane-1-carboxamide] |  | 
6 | 93 | 750 | sub-micromolar | Nc1cc(NC(=O)Cc2ccc(Br)cc2)cc2c1C(=O)NC2=O [Compound 5f, N-(7-amino-1,3-dioxoisoindolin-5-yl)-2-(4-bromophenyl)acetamide] | 40 | 
7 |  |  |  | Cn1cc(-c2ccc(F)c(C(F)(F)F)c2)nc1C1CCN(c2ncnc3[nH]ncc23)CC1 [LY-2584702] |  | tolerability in Phase I trials [2]: not well-tolerated
8 |  |  |  | CCc1cncnc1N1CCN(Cc2nc3cc(C(F)(F)F)ccc3[nH]2)CC1 [PF-4708671] |  | tolerability in preclinical studies ([3]; preclinical studies for breast cancer): well-tolerated; blood–brain barrier (BBB) penetration [3]: poor blood–brain barrier (BBB) penetrant
9 |  |  |  | COC(=O)[C@@H](Cc1ccc(O)c(O)c1)OC(=O)/C=C/c1ccc(O)c(O)c1 [Rosmarinic acid methyl ester] |  | autophagy and apoptotic cell death (cervical cancer cells): increase in autophagy and apoptotic cell death

— article PMC11694070, “Development of 6-amido-4-aminoisoindolyn-1,3-diones as p70S6K1 inhibitors and potential breast cancer therapeutics” (Frontiers in Molecular Biosciences, 2024)
